The record followed here is US12076331B2, “Inositol derivatives for use in pathological crystallization” (ETH Zurich, priority 2015, dated 2024).

The nature of experiment [1]: In-solution screening of CaP precipitation and aggregation in artificial renal tubular fluid (RTF). It is filed as physicochemical. To be noted: 9 mM phosphate, 8 mM calcium, 4 h. The procedure: Effects of (A) OEG2-IP5, (B) OEG11-IP5, (C) (OEG2)2-IP4, (D) (OEG11)2-IP4 and (E) OEG8-(IP5)2. on CaP precipitation in RTF spiked with 9 mM disodium phosphate and 8 mM calcium chloride were assessed by light microscopy followed by automated image analysis at t=4 h. Quantification of the total area covered with CaP precipitates/total area field of view (N=3, mean+SD, normalized to the control).
Effects of (A) OEG2-IP5, (B) OEG11-IP5, (C) (OEG2)2-IP4, (D) (OEG11)2-IP4 and (E) OEG8-(IP5)2. on CaP precipitation in RTF spiked with 9 mM disodium phosphate and 8 mM calcium chloride were assessed by light microscopy followed by automated image analysis at t=4 h. Quantification of the mean size of aggregates/field of view normalized to the ctrl (N=3, mean+SD, normalized to the control).
Overview table showing the minimal concentration of compound (FIG. 3 for the chemical structures) required to achieve complete inhibition of CaP precipitation (total area covered with crystals <10% of total area control); and minimal concentration required to prevent CaP crystal aggregation in the CaP screening assay (CaP aggregate size <50% of aggregate size control) (N=3).
An artificial renal tubular fluid (RTF) with a final composition of 0.05 mM oxalate, 0.005 mM sulphate, 408 mM sodium, 424 mM chloride, 0.26 mM potassium, 4 mM magnesium and 0.2 mM citrate in double distilled water was prepared according to a literature report (Fasano, J. M. et al., Kidney Int. 59, 169-178. DOI: 10.1046/j. 1523-1755.2001.00477.x, 2001). The solution was filtered with a 0.45-μm syringe filter. Twenty mM Bis-Tris buffer was added to the reported protocol to ensure pH stability throughout experiments and pH was set to 7.2. The artificial RTF was stored at room temperature for up to four months. Stock solutions of 0.25 M phosphate and 1 M calcium were prepared in double distilled water and were stored separately at −20° C.
Twenty-x final concentration phosphate, 20× final concentration calcium and 10× final concentration compound dilutions were prepared in RTF. Assay mixture consisting of 80% RTF, 10% compound dilution, 5% phosphate dilution and 5% calcium dilution was prepared in Eppendorf tubes as follows. RTF (320 μL) was mixed with 20 μL phosphate dilution (final concentration of 9 mM), 40 μL compound dilution and 20 μL calcium dilution (final concentration of 8 mM). The assay mixture was vortexed after adding each component and 380 μL of the mixture were immediately added to 8-well glass bottom slides and incubated for 4 hat RT. CaP precipitation was assessed using a Leica DM 6000B microscope (Leica Microsystems, Wetzlar, Germany) in brightfield mode. For quantification 3 wells/condition with 3-4 images/well were imaged with a 40× objective. The total area covered with CaP deposits in percentage of the field of view and the mean size of CaP aggregates were determined.
In a first step, the influence of selected IP6 analogues (FIG. 5) on CaP precipitation and growth was assessed in vitro using artificial renal tubular fluid (RTF) (Table 1). In a previous study, the inventors investigated CaP protein particle formation in serum. However, an important difference to cardiovascular calcification lies in the extremely low protein content of the renal tubular fluid vs. the high abundance of proteins in blood, which can stabilize amorphous particles. Two cut-offs were chosen for assessing efficacy. First, complete inhibition was defined as a >90% reduction of detected CaP precipitates compared to the control sample without compound. Second, inhibition of CaP aggregation was defined as a >50% reduction of the mean size of aggregates when compared to the control.

In experiment [2] the test system is RPTEC/TERT 1 human proximal tubule cells. The experiment in a line: CaP-induced CaOx crystallization on RPTEC monolayers. The conditions noted are these: CaP-induced model, 1.2 mM oxalate, 4 h. It is filed as cell-based. On the procedure: For the assessment of CaP-induced CaOx crystallization, after 24 h of incubation, Ca/P spiked medium was removed, and cells were washed twice with PBS. Subsequently, medium containing 1.2 mM oxalate and compound was added to each well. After 4 h of incubation at 37° C. and 5% CO2 treatment was removed, and cells washed once with PBS before staining.
For staining, ProxUp basal medium was mixed with calcein (500 nM final concentration), EthD (6 μM final concentration), CellMask stain ([…]) and Hoechst 33342. Staining mixture was added to RPTEC and cells were incubated for 30 min in the dark at 37° C. and 5% CO2. Staining solution was removed, cells were washed with PBS once and ProxUp basal medium was added. Cells were immediately imaged after staining. […] For quantification 3 wells/condition were prepared and 3 images/well were taken. […]
To allow rapid profiling of molecules for their effects on diverse kidney calcification processes, the inventors developed a cell-based assay that allowed the monitoring of CaP deposition, as well as cellular changes associated with it. Therefore, the inventors utilized monolayers of renal proximal tubular cells (RPTEC) stained with various dyes to quantify calcification and cell morphology changes (FIG. 3). […] CaP deposits were detected via calcein staining (FIG. 3B). […]

As to `COCCOCCO[C@@H]1C(OP(=O)(O)O)[C@H](OCCOCCOC)[C@@H](OP(=O)(O)O)C(OP(=O)(O)O)[C@H]1OP(=O)(O)O` (stereo partly drawn) [(OEG2)2-IP4], the “effect on CaP precipitation/crystallization in words” value in experiment [1] is “did not further increase the inhibitory activity”. In experiment [2], the “CaP-induced CaOx crystallization” value was “reduced” and the “concentration at which COD was almost entirely abolished” value came to 100 µM.
